Experimental data: patent US20240246946A1, “MODULATORS OF TREX1” (Constellation Pharmaceuticals, Inc., priority 2021, published 2024)

Tests used:
full length human TREX1 [1] = target: T1, full length human TREX1 (Homo sapiens, UniProt Q9NSU2); test: TREX1 Kinetics Assays (TR-FRET association and dissociation, global fit with Kintek Explorer); type: binding; conditions: for residence time: hTREX1, TR-FRET kinetics; for koff: hTREX1, TR-FRET, 25° C., global fit
T1 construct: N-terminally His-Tev tagged full length human TREX1; made in house; host or cells: E. coli
T1 sequence (Q9NSU2 1-314): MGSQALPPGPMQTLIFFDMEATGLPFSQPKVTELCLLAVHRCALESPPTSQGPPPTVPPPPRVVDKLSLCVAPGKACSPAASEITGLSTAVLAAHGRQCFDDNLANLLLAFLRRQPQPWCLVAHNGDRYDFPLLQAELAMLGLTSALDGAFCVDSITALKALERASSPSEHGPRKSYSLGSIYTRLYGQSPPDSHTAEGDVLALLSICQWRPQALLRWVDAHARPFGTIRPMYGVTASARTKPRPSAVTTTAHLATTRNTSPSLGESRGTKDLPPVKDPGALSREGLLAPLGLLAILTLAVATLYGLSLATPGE
Protocol: Compound binding kinetics were assessed using a pair of TR-FRET assays which measure the proportion of protein bound to a biotinylated TREX1 inhibitor (“probe”).
N-terminally His-Tev tagged full length human TREX1 (expressed in E. coli and purified in house), complexed with Eu-W1024-anti-6×His (“Eu”; PerkinElmer) in reaction buffer (50 mM Tris, 150 mM NaCl, 2 mM DTT, 0.1 mg/mL BSA, 0.01% (w/v) Tween-20, 5 mM MgCl2, pH 7.4) was combined with an equal volume of test compound in reaction buffer and incubated at 25° C. Concentrations at this stage were 1 nM TREX1/Eu complex, and four concentrations of compound (diluted from 10 mM stocks in 100% DMSO). At defined time points, 18 μL of this mixture was withdrawn and combined with 2 μL probe to a final concentration of 1 μM probe. After incubating for 30 seconds, 18 μL was withdrawn and combined with 2 μL streptavidin-allophycocyanin (“SA-APC”; PerkinElmer) to a final concentration of 1.5 μM SA-APC. Fifteen μL of this mixture was then immediately transferred to a 384-well Black ProxiPlate Plus (PerkinElmer) and read in an EnVision plate reader (PerkinElmer) measuring fluorescence at 615 nm and 665 nm following excitation w/337 nm laser light. Final concentrations were 0.8 nM TREX1/Eu complex, 0.9 μM probe, and 1.5 μM SA-APC.
N-terminally His-Tev tagged full length human TREX1 (expressed in E. coli and purified in house), complexed with Eu-W1024-anti-6×His (“Eu”; PerkinElmer) in reaction buffer (50 mM Tris, 150 mM NaCl, 2 mM DTT, 0.1 mg/mL BSA, 0.01% (w/v) Tween-20, 5 mM MgCl2, pH 7.4) was combined with an equal volume of test compound in reaction buffer. Concentrations at this stage were 100 nM TREX1/Eu complex and 100 nM test compound (diluted from 10 mM stocks in 100% DMSO). Following an equilibration period of at least an hour at 25° C., this mixture was diluted 100-fold into reaction buffer containing 1 μM probe, and incubated at 25° C. At defined time points, 36 μL of the reaction mixture was withdrawn and combined with 4 μL streptavidin-allophycocyanin (“SA-APC”; PerkinElmer) to a final concentration of 1.5 μM SA-APC. Fifteen μL of this mixture was then immediately transferred to duplicate wells of a 384-well Black ProxiPlate Plus (PerkinElmer) and read in an EnVision plate reader (PerkinElmer) measuring fluorescence at 615 nm and 665 nm following excitation w/337 nm laser light.
The TR-FRET signal, a ratio of 665 nm/615 nm emitted light, was converted to fraction enzyme bound to test compound by normalizing to low signal (no enzyme or test compound) and high signal (no test compound) controls. Data from both association and dissociation experiments were fitted globally using Kintek Explorer software, which computes the rate constants directly.

full length human TREX1 [2] = target: T1, full length human TREX1; test: hTREX1 Biochemical Assay (fluorescence, dsDNA substrate degradation); conditions: biochemical, read-out: hTREX1 IC50
Summary of the method: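 Cleavage of 60 nM TEX615/quencher-labelled dsDNA in pH 7.4 Tris buffer with 5 mM MgCl2, 1.0% DMSO, run 18 hours at 25° C, EDTA-quenched; fluorescence read-out.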

full length mouse TREX1 = target: T2, full length mouse TREX1 (Mus musculus, UniProt Q91XB0); test: mTREX1 Biochemical Assay (fluorescence, dsDNA substrate degradation); conditions: biochemical, read-out: mTREX1 IC50
T2 construct: N-terminally His-Tev tagged full length mouse TREX1; made in house; host or cells: E. coli
T2 sequence (Q91XB0 1-314): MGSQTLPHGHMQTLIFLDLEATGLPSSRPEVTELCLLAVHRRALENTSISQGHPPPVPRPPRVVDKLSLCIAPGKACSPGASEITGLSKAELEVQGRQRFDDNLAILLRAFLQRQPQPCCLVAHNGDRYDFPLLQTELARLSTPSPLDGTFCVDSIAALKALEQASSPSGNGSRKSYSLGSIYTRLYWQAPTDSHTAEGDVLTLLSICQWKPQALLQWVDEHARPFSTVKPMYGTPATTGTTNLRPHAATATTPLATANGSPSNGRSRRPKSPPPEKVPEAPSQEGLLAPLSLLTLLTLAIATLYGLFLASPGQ
Summary of the method: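 Reaction run 18 h at 25° C. with 60 nM TEX615/quencher-labelled dsDNA and 6 pM mouse TREX1 in Tris buffer (pH 7.4, 5 mM MgCl2, 1.0% DMSO), enzyme having sat 4 h with compound across 10 concentrations. EDTA quench; substrate degradation measured as fluorescence increase.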

[3] = target: T3, human TREX2 (residues M44-A279) (Homo sapiens, UniProt Q9BQ50); test: hTREX2 Biochemical Assay (fluorescence, dsDNA substrate degradation); conditions: biochemical selectivity for hTREX1 vs hTREX2
T3 construct: human TREX2 (residues M44-A279, expressed in E. coli); made in house; host or cells: E. coli
T3 sequence (Q9BQ50 44-279 isoform Q9BQ50-1): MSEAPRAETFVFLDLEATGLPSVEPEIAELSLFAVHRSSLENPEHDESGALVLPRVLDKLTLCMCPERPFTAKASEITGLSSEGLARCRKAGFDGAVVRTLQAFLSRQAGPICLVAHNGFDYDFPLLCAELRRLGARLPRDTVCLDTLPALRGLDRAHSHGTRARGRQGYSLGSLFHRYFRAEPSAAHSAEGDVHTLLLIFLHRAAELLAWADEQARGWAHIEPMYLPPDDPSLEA
Summary of the method: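 N-His-Tev E. coli enzyme (50 pM) pre-incubated with compound 4 h at 25 °C, then 60 nM TEX615/quencher dsDNA added; 18 h at 25 °C, pH 7.4 Tris buffer with 5 mM MgCl2, 1.0% DMSO. EDTA-quenched; fluorescence 570 ex/615 em from liberated fluorophore, 10-point dose-response.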

hTREX1 = target: T4, hTREX1 (Homo sapiens, UniProt Q9NSU2); test: hTREX1 HCT116 Cell Assay (HCT116 dual cells, Lucia luciferase reporter of Type I interferon induction); type: cell-based; conditions: TREX1i 4 h before pBR322/BstNI transfection, read after 48 h
T4 construct: host or cells: HCT116 dual cells
T4 sequence (Q9NSU2 1-314): T1 sequence (Q9NSU2 1-314)
Summary of the method: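 HCT116 dual cells carrying an ISRE-type STAT1/STAT2-driven secreted Lucia luciferase reporter were pretreated with TREX1 inhibitor for 4 h (≤0.1% DMSO), then transfected with pBR322/BstNI DNA (100 ng/well, Lipofectamine LTX). Luciferase in medium read after 48 h at 37 °C.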

Cc1cnc(C(c2ccccc2C#N)C(C)c2nc(C(=O)Nc3cnoc3)c(O)c(=O)n2C)cn1 (single isomer, unassigned) [Example 46 D1E2]
residence time (full length human TREX1 [1]): 346 min
koff (full length human TREX1 [1]): 4.82e-05 s⁻¹

Cc1ncc(C(c2ccccc2C#N)C(C)c2nc(C(=O)Nc3cnoc3)c(O)c(=O)n2C)cn1 (single isomer, unassigned) [Example 67 D1E2]
IC50 (full length human TREX1 [2]): < 0.001 µM
residence time (full length human TREX1 [1]): 408 min
koff (full length human TREX1 [1]): 4.08e-05 s⁻¹

Cc1ccn(C(c2cc(F)ccc2Cl)C(C)c2nc(C(=O)Nc3cnoc3)c(O)c(=O)n2C)n1 (single isomer, unassigned) [Example 146 D1E1]
IC50 (full length mouse TREX1): > 0.01 µM
hTREX1 vs hTREX2 selectivity [3]: C (C = >50 fold selective for hTREX1)
IC50 (hTREX1): > 0.1 µM
IC50 (full length human TREX1 [2]): 0.001 to 0.01 µM

CC(c1nc(C(=O)Nc2cnoc2)c(O)c(=O)n1C)C(c1ccccc1Cl)n1nccc1C(N)=O (single isomer, unassigned) [Example 147 D1E1]
IC50 (full length mouse TREX1): > 0.01 µM
hTREX1 vs hTREX2 selectivity [3]: C (C = >50 fold selective for hTREX1)
IC50 (hTREX1): 0.01 to 0.1 µM
IC50 (full length human TREX1 [2]): < 0.001 µM

CC(c1nc(C(=O)Nc2cnoc2)c(O)c(=O)n1C)C(c1cnn(C(F)(F)F)c1)c1ccccc1C#N (single isomer, unassigned) [Example 151 D1E1]
IC50 (full length mouse TREX1): < 0.001 µM
hTREX1 vs hTREX2 selectivity [3]: B (B = 25 to 50-fold selective for hTREX1)
IC50 (hTREX1): 0.01 to 0.1 µM
IC50 (full length human TREX1 [2]): < 0.001 µM

CC(c1nc(C(=O)Nc2cnoc2)c(O)c(=O)n1C)C(c1cnn(C(F)(F)F)c1)c1ccccc1C#N (single isomer, unassigned) [Example 151 D2E1]
IC50 (full length mouse TREX1): > 0.01 µM
hTREX1 vs hTREX2 selectivity [3]: B (B = 25 to 50-fold selective for hTREX1)
IC50 (hTREX1): > 0.1 µM
IC50 (full length human TREX1 [2]): 0.001 to 0.01 µM

CC(c1nc(C(=O)Nc2cnoc2)c(O)c(=O)n1C)C(c1ccccc1Cl)c1nncn1C (single isomer, unassigned) [Example 152 D1E1]
IC50 (full length mouse TREX1): > 0.01 µM
hTREX1 vs hTREX2 selectivity [3]: B (B = 25 to 50-fold selective for hTREX1)
IC50 (hTREX1): > 0.1 µM
IC50 (full length human TREX1 [2]): > 0.01 µM

Cc1nn(C)c(C)c1C(c1cc(F)ccc1Cl)C(C)c1nc(C(=O)Nc2cnoc2)c(O)c(=O)n1C (single isomer, unassigned) [Example 154 D1E1]
IC50 (full length mouse TREX1): 0.001 to 0.01 µM
hTREX1 vs hTREX2 selectivity [3]: B (B = 25 to 50-fold selective for hTREX1)
IC50 (hTREX1): > 0.1 µM
IC50 (full length human TREX1 [2]): < 0.001 µM

CC(c1nc(C(=O)Nc2cnoc2)c(O)c(=O)n1C)C(c1ccccc1)c1cccnc1C#N (single isomer, unassigned) [Example 155 D1E2]
IC50 (full length mouse TREX1): 0.001 to 0.01 µM
hTREX1 vs hTREX2 selectivity [3]: C (C = >50 fold selective for hTREX1)
IC50 (hTREX1): > 0.1 µM
IC50 (full length human TREX1 [2]): 0.001 to 0.01 µM

CC(c1nc(C(=O)Nc2cnoc2)c(O)c(=O)n1C)C(c1ccccc1)c1cccnc1C#N (single isomer, unassigned) [Example 155 D2E1]
IC50 (full length mouse TREX1): > 0.01 µM
hTREX1 vs hTREX2 selectivity [3]: C (C = >50 fold selective for hTREX1)
IC50 (hTREX1): 0.01 to 0.1 µM
IC50 (full length human TREX1 [2]): < 0.001 µM

Cc1nnc(C(c2ccccc2Cl)C(C)c2nc(C(=O)Nc3cnoc3)c(O)c(=O)n2C)o1 (single isomer, unassigned) [Example 156 D1E1]
IC50 (full length mouse TREX1): > 0.01 µM
hTREX1 vs hTREX2 selectivity [3]: A (A = <25 fold selective for hTREX1)
IC50 (hTREX1): > 0.1 µM
IC50 (full length human TREX1 [2]): > 0.01 µM
